Experiments:
Type in all cases: cell-based
THP1 = assay: Caspase 3 activity, EnzChek Caspase-3 Assay Kit; conditions: 0.5 μM, 48 hours
Experimental: (§1) THP1 and HL-60 cells were treated with DMSO (vehicle control) or 0.5 μM LOR-253 for 48 hours. Cell lysates were collected using a 1% Triton-X100 lysis. Caspase 3 activity was measured using EnzChek Caspase-3 Assay Kit #1 (Life Technologies) with 5 μg of cell lysastes according to manufacturer's protocol.

HL-60 [1] = assay: Caspase 3 activity, EnzChek Caspase-3 Assay Kit; conditions: 0.5 μM, 48 hours
Experimental: as §1

K562 = assay: XTT antiproliferative assay; conditions: Homo sapiens, 120 h; K562, Chronic Myelogenous Leukemia; 5 days incubation
Experimental: (§2) Antiproliferative activity of LOR-253 was determined by XTT assay as follows. Adherent cells (2×10^3/well) in 100 μL of growth medium were seeded in 96-well cell culture plates and incubated overnight at 37° C. The medium was removed and replaced with a total volume of 100 μL growth medium containing LOR-253 (or 0.1% DMSO vehicle control), as described in the respective experiments. Suspension cells were plated (4-6×10^3/well) in 50 μL growth medium, and 50 μL growth medium containing LOR-253 (or 0.1% DMSO vehicle control) was added to each well. After incubation of the cells at 37° C. for 5 days, cell viability was quantitated with the use of sodium 3′-[1-(phenylamino-carbonyl)-3,4-tetrazolium}-bis(4-methoxy-6-nitro)benzene sulfonic acid hydrate (XTT) colorimetric assay (Roche). XTT labeling reagent (1 mg/mL) was mixed with electron-coupling reagent, following the manufacturer's instructions, and 50 μL of the mixture was added directly to the cells. The plates were further incubated at 37° C. for 4 h, and the absorbance of each well was measured at 490 nm with a multiwell spectrophotometer (Bio-Tek Instruments Inc.). The data were adjusted relative to the blank and expressed as a percentage of cell growth compared with the vehicle control. (Ref. Huesca et al., Mol Cancer Ther. 2009. 8:2586-96; Lorus publication on LOR-133)

Raji = assay: XTT antiproliferative assay; conditions: Homo sapiens, 120 h, Non-Hodgkin's Lymphoma, 5 days incubation
Experimental: as §2

Ramos = assay: XTT antiproliferative assay; conditions: Homo sapiens, 120 h, Non-Hodgkin's Lymphoma, 5 days incubation
Experimental: as §2

EOL-1 = assay: XTT antiproliferative assay; conditions: Homo sapiens, EOL1, 120 h; EOL-1, Acute myeloid leukemia; 5 days incubation
Experimental: as §2

MOLM13 (CD47+) = assay: XTT antiproliferative assay; conditions: Homo sapiens, MOLM-13, 120 h, Acute myeloid leukemia, 5 days incubation
Experimental: as §2

Mino = assay: XTT antiproliferative assay; conditions: Homo sapiens, 120 h, Non-Hodgkin's Lymphoma, 5 days incubation
Experimental: as §2

MV-4-11 = assay: XTT antiproliferative assay; conditions: Homo sapiens, MV4-11, 120 h; MV-4-11, Acute myeloid leukemia; 5 days incubation
Experimental: as §2

HuNS1 = assay: XTT antiproliferative assay; conditions: 120 h; HuNS1, Multiple myeloma; 5 days incubation
Experimental: as §2

OCI-AML2 = assay: XTT antiproliferative assay; conditions: Homo sapiens, 120 h; OCI-AML2, Acute myeloid leukemia; 5 days incubation
Experimental: as §2

NB4 = assay: XTT antiproliferative assay; conditions: Homo sapiens, NB-4, 120 h; NB4, Acute myeloid leukemia; 5 days incubation
Experimental: as §2

KG-1 = assay: XTT antiproliferative assay; conditions: Homo sapiens, 120 h; KG-1, Acute myeloid leukemia; 5 days incubation
Experimental: as §2

Jurkat = assay: XTT antiproliferative assay; conditions: Homo sapiens, 120 h, Acute lymphoblastic leukemia, 5 days incubation
Experimental: as §2

HEL92.1.7 = assay: XTT antiproliferative assay; conditions: Homo sapiens, HEL 92.1.7, 120 h; HEL92.1.7, Acute myeloid leukemia; 5 days incubation
Experimental: as §2

MOLT-4 = assay: XTT antiproliferative assay; conditions: Homo sapiens, 120 h; MOLT-4, Acute lymphoblastic leukemia; 5 days incubation
Experimental: as §2

RL = assay: XTT antiproliferative assay; conditions: Homo sapiens, 120 h, Non-Hodgkin's Lymphoma, 5 days incubation
Experimental: as §2

CCRF-CEM = assay: XTT antiproliferative assay; conditions: Homo sapiens, 120 h, Acute lymphoblastic leukemia, 5 days incubation
Experimental: as §2

NOMO-1 = assay: XTT antiproliferative assay; conditions: Homo sapiens, 120 h; NOMO-1, Acute myeloid leukemia; 5 days incubation
Experimental: as §2

Toledo = assay: XTT antiproliferative assay; conditions: Homo sapiens, 120 h, Non-Hodgkin's Lymphoma, 5 days incubation
Experimental: as §2

Kasumi-1 = assay: XTT antiproliferative assay; conditions: Homo sapiens, 120 h; Kasumi-1, Acute myeloid leukemia; 5 days incubation
Experimental: as §2

SKM-1 = assay: XTT antiproliferative assay; conditions: Homo sapiens, 120 h; SKM-1, Acute myeloid leukemia; 5 days incubation
Experimental: as §2

CA46 = assay: XTT antiproliferative assay; conditions: Homo sapiens, 120 h; CA46, Non-Hodgkin's Lymphoma; 5 days incubation
Experimental: as §2

THP-1 = assay: XTT antiproliferative assay; conditions: Homo sapiens, 120 h; THP-1, Acute myeloid leukemia; 5 days incubation
Experimental: as §2

U266B1 = assay: XTT antiproliferative assay; conditions: 120 h; U266B1, Multiple myeloma; 5 days incubation
Experimental: as §2

HL-60 [2] = assay: XTT antiproliferative assay; conditions: Homo sapiens, 120 h; HL-60, Acute myeloid leukemia; 5 days incubation
Experimental: as §2

MM.1R = assay: XTT antiproliferative assay; conditions: 120 h, Multiple myeloma, 5 days incubation
Experimental: as §2

DB = assay: XTT antiproliferative assay; conditions: Homo sapiens, 120 h, Non-Hodgkin's Lymphoma, 5 days incubation
Experimental: as §2

Cc1[nH]c2ccc(F)cc2c1-c1nc2c3cccnc3c3ncccc3c2[nH]1 [LOR-253]
Caspase 3 activity (THP1): elevated Caspase 3 activity
Caspase 3 activity (HL-60 [1]): elevated Caspase 3 activity
IC50 (K562): 250 nM
IC50 (Raji): 11 nM
IC50 (Ramos): 125 nM
IC50 (EOL-1): 58 nM
IC50 (MOLM13 (CD47+)): 130 nM
IC50 (Mino): 140 nM
IC50 (MV-4-11): 69 nM
IC50 (HuNS1): 72 nM
IC50 (OCI-AML2): 76 nM
IC50 (NB4): 60 nM
IC50 (KG-1): 33 nM
IC50 (Jurkat): 71 nM
IC50 (HEL92.1.7): 305 nM
IC50 (MOLT-4): 70 nM
IC50 (RL): 190 nM
IC50 (CCRF-CEM): 39 nM
IC50 (NOMO-1): 121 nM
IC50 (Toledo): 77 nM
IC50 (Kasumi-1): 6.9 nM
IC50 (SKM-1): 145 nM
IC50 (CA46): 190 nM
IC50 (THP-1): 77 nM
IC50 (U266B1): 180 nM
IC50 (HL-60 [2]): 46 nM
IC50 (MM.1R): 150 nM
IC50 (DB): 99 nM
